These results are taken from patent publication US10323027B2, “2,3-dihydro-4H-1,3-benzoxazin-4-one derivatives as modulators of cholinergic muscarinic M1 receptor” (Takeda Pharmaceutical Company Limited, priority 2015, dated 2019).

This assay concerns the target T1, human M1 receptor (hCHRM1) (Homo sapiens, UniProt P11229).
T1 construct: expressed in transfected cells
T1 sequence (P11229 1-460): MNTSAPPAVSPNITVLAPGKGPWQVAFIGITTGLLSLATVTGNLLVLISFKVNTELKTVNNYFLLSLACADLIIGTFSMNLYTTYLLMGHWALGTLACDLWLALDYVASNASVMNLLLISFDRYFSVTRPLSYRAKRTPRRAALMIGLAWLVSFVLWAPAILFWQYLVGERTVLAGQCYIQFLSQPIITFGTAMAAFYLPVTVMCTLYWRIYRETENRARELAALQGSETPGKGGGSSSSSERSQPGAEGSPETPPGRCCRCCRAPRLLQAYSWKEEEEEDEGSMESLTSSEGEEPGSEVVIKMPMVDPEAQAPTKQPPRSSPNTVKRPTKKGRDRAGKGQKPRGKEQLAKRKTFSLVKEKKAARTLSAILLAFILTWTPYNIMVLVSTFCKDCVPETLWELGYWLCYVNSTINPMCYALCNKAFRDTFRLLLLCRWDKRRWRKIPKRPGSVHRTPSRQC
Put plainly: Measurement of M1 receptor positive allosteric modulator (M1PAM) activity, Ca2+ fluorescence by FLIPRtetra (Experimental Example 1). Type of assay: cell-based. Conditions: for activity (%) at 10 μM: 10 μM test compound, 100% = acetylcholine 1 μM, 0% = DMSO; for EC50: inflection point of concentration-dependent curve, in presence of acetylcholine at EC20 (0.8-1.0 nM), CHO-K1 cells expressing hCHRM1, read-out: IP value. Here is the method:
Measurement of M1 Receptor Positive Allosteric Modulator (M1PAM) Activity
The activity of a test compound in the presence of acetylcholine at EC20 concentration (final concentration 0.8-1.0 nM), which affords an action corresponding to about 20% of the maximum activity, was measured as PAM activity. The method is as follows. CHO-K1 cells stably expressing a human M1 receptor (hCHRM1) were plated on a 384-well black clear bottom plate (BD Falcon) at 5,000 cells/well, and cultured in an incubator at 37° C., 5% CO2 for 1 day. The medium in the cell plate was removed, and a dye solution (prepared by adding Recording medium (DOJINDO LABORATORIES) to a final concentration of 1×concentration, Fluo-4 AM (DOJINDO LABORATORIES) to a final concentration of 2.5 μg/mL, Pluronic F127 (DOJINDO LABORATORIES) to a final concentration of 0.08%, and probenecid (DOJINDO LABORATORIES) to a final concentration of 1.25 mM to assay buffer (HBSS (Invitrogen), 20 mM HEPES (Invitrogen), 0.1% BSA (Wako Pure Chemical Industries, Ltd.))) was added at 30 μL/well. The cells were left standing in the incubator at 37° C., 5% CO2 for 30 min, and further left standing at room temperature for 30 min. A test compound prepared by diluting with assay buffer containing 3.2-4.0 nM acetylcholine was added at 10 μL/well, and the fluorescence was measured by FLIPRtetra (Molecular Devices) for 1 min every 1 second. With the definition that the amount of change in the fluorescence on addition of acetylcholine (final concentration 1 μM) is 100% and that on addition of DMSO instead of a test compound is 0%, the activity (%) of the test compound was calculated, and the inflection point in the concentration-dependent curve of the test compound was calculated as IP values.

Molecules are shown by their SMILES.

For the compound `O=C1c2cc(CN3CC[S+]([O-])CC3)c3ccccc3c2OCN1[C@H]1CCC[C@@H]1O` [Example 60, 3-((1S,2S)-2-hydroxycyclopentyl)-6-((1-oxidothiomorpholin-4-yl)methyl)-2,3-dihydro-4H-naphtho[2,1-e][1,3]oxazin-4-one], the “activity (%) at 10 μM” value is listed as 105% and the EC50 came out at 22 nM.

As to `Cc1cc2c(cc1Cc1ccc(-c3cn(C)nn3)nc1)C(=O)N(CC1CCCO1)CO2` (stereo not drawn) [Example 71, 7-methyl-6-((6-(1-methyl-1H-1,2,3-triazol-4-yl)pyridin-3-yl)methyl)-3-(tetrahydrofuran-2-ylmethyl)-2,3-dihydro-4H-1,3-benzoxazin-4-one], the “activity (%) at 10 μM” value worked out at 105% and the EC50 worked out at 53 nM.

As for `Cc1cc(Cc2ccc(-n3cccn3)cc2)cc2c1OCN([C@H]1CCCC[C@@H]1O)C2=O` (relative stereo) [Example 65, 3-(trans-2-hydroxycyclohexyl)-8-methyl-6-(4-(1H-pyrazol-1-yl)benzyl)-2,3-dihydro-4H-1,3-benzoxazin-4-one], the “activity (%) at 10 μM” value came out at 99% and the EC50 turned out to be 35 nM.

Consider `Cc1c(Cc2ccc(Cl)nc2)cc2c(c1F)OCN([C@H]1CCCC[C@@H]1O)C2=O` [Example 54, 6-((6-chloropyridin-3-yl)methyl)-8-fluoro-3-((1S,2S)-2-hydroxycyclohexyl)-7-methyl-2,3-dihydro-4H-1,3-benzoxazin-4-one], for which the “activity (%) at 10 μM” value came out at 116% and the EC50 was 11 nM.

Regarding `Cc1cc2c(cc1Cc1ccc(C#N)cc1)C(=O)N([C@H]1CCC[C@@H]1O)CO2` [Example 67, 4-((3-((1S,2S)-2-hydroxycyclopentyl)-7-methyl-4-oxo-3,4-dihydro-2H-1,3-benzoxazin-6-yl)methyl)benzonitrile], the “activity (%) at 10 μM” value came out at 98% and the EC50 is 46 nM.

As to `Cn1cc(-c2ccc(Cc3cc4c(c5ccccc35)OCN([C@H]3CCCC[C@@H]3O)C4=O)cn2)cn1` (relative stereo) [Example 41, 3-(trans-2-hydroxycyclohexyl)-6-((6-(1-methyl-1H-pyrazol-4-yl)pyridin-3-yl)methyl)-2,3-dihydro-4H-naphtho[2,1-e][1,3]oxazin-4-one], the “activity (%) at 10 μM” value was found to be 104% and the EC50 is 1.8 nM.

As for `N#CC1CCN(Cc2cc3c(c4ccccc24)OCN([C@H]2CCC[C@@H]2O)C3=O)C1` (stereo partly drawn) [Example 75, 1-((3-((1S,2S)-2-hydroxycyclopentyl)-4-oxo-3,4-dihydro-2H-naphtho[2,1-e][1,3]oxazin-6-yl)methyl)pyrrolidine-3-carbonitrile (diastereoisomer)], the “activity (%) at 10 μM” value was determined as 102% and the EC50 worked out at 60 nM.

In the case of `O=C1c2cc(CN3CCC(F)CC3)c3ccccc3c2OCN1[C@H]1CCC[C@@H]1O` [Example 79, 6-((4-fluoropiperidin-1-yl)methyl)-3-((1S,2S)-2-hydroxycyclopentyl)-2,3-dihydro-4H-naphtho[2,1-e][1,3]oxazin-4-one], the “activity (%) at 10 μM” value is recorded as 97% and the EC50 is 78 nM.

Turning to `O=C1c2cc(CN3CCCC(F)(F)C3)c3ccccc3c2OCN1[C@H]1CCC[C@@H]1O` [Example 72, 6-((3,3-difluoropiperidin-yl)methyl)-3-((1S,2S)-2-hydroxycyclopentyl)-2,3-dihydro-4H-naphtho[2,1-e][1,3]oxazin-4-one], the “activity (%) at 10 μM” value worked out at 100% and the EC50 amounted to 57 nM.

`Cc1c(Cc2ccc(-n3cccn3)nc2)cc2c(c1Cl)OCN([C@H]1CCC[C@@H]1O)C2=O` (relative stereo) [Example 51, 8-chloro-3-(trans-2-hydroxycyclopentyl)-7-methyl-6-((6-(1H-pyrazol-1-yl)pyridin-3-yl)methyl)-2,3-dihydro-4H-1,3-benzoxazin-4-one]: the “activity (%) at 10 μM” value turned out to be 101% and the EC50 was 9.7 nM.

Turning to `C=Cc1ccc(Cc2cc3c(c4ccccc24)OCN([C@H]2COCC[C@@H]2O)C3=O)cn1` [Example 42, 1,5-anhydro-2,4-dideoxy-2-(4-oxo-6-((6-vinylpyridin-3-yl)methyl)-2H-naphtho[2,1-e][1,3]oxazin-3(4H)-yl)-L-threo-pentitol], the “activity (%) at 10 μM” value is reported as 124% and the EC50 was 2 nM.

For `Cc1c(Cc2ccc(-c3ccn(C)n3)nc2)cc2c(c1F)OCN([C@H]1CCC[C@@H]1O)C2=O` [Example 22, 8-fluoro-3-((1S,2S)-2-hydroxycyclopentyl)-7-methyl-6-((6-(1-methyl-1H-pyrazol-3-yl)pyridin-3-yl)methyl)-2,3-dihydro-4H-1,3-benzoxazin-4-one], the “activity (%) at 10 μM” value was determined as 105% and the EC50 came to 0.69 nM.

Turning to `Cc1ccc(Cc2cc3c(c(F)c2Cl)OCN([C@H]2CCC[C@@H]2O)C3=O)cn1` [Example 81, 7-chloro-8-fluoro-3-((1S,2S)-2-hydroxycyclopentyl)-6-((6-methylpyridin-3-yl)methyl)-2,3-dihydro-4H-1,3-benzoxazin-4-one], the “activity (%) at 10 μM” value worked out at 110% and the EC50 was found to be 86 nM.

Regarding `Cc1c(Cc2ccc(-c3cnn(C)c3)nc2)cc2c(c1Cl)OCN(CC1CCCO1)C2=O` (stereo not drawn) [Example 45, 8-chloro-7-methyl-6-((6-(1-methyl-1H-pyrazol-4-yl)pyridin-3-yl)methyl)-3-(tetrahydrofuran-2-ylmethyl)-2,3-dihydro-4H-1,3-benzoxazin-4-one], the “activity (%) at 10 μM” value worked out at 92% and the EC50 was 4.8 nM.

With `O=C1c2cc(Cc3ccc(Cl)nc3)c3ccccc3c2OCN1[C@H]1CCCC[C@@H]1O` (relative stereo) [Example 56, 6-((6-chloropyridin-3-yl)methyl)-3-(trans-2-hydroxycyclohexyl)-2,3-dihydro-4H-naphtho[2,1-e][1,3]oxazin-4-one], the “activity (%) at 10 μM” value was 109% and the EC50 was 16 nM.

As to `Cc1c(Cc2ccc(-n3cccn3)cc2)cc2c(c1F)OCN(CC1CCCO1)C2=O` (stereo not drawn) [Example 78, 8-fluoro-7-methyl-6-(4-(1H-pyrazol-1-yl)benzyl)-3-(tetrahydrofuran-2-ylmethyl)-2,3-dihydro-4H-1,3-benzoxazin-4-one], the “activity (%) at 10 μM” value stood at 104% and the EC50 worked out at 75 nM.

Consider `COc1ccc(Cc2cc3c(c(C)c2C)OCN([C@H]2COCC[C@@H]2O)C3=O)cc1` (single isomer, unassigned) [Example 17, 1,5-anhydro-2,4-dideoxy-2-(6-(4-methoxybenzyl)-7,8-dimethyl-4-oxo-2H-1,3-benzoxazin-3(4H)-yl)-threo-pentitol (optical isomer)], for which the “activity (%) at 10 μM” value was 112% and the EC50 was 27 nM.

For `Cc1c(Cc2ccc(-n3cccn3)cc2)cc2c(c1C)OCN([C@H]1CCCC[C@@H]1O)C2=O` (relative stereo) [Example 53, 3-(trans-2-hydroxycyclohexyl)-7,8-dimethyl-6-(4-(1H-pyrazol-1-yl)benzyl)-2,3-dihydro-4H-1,3-benzoxazin-4-one], the “activity (%) at 10 μM” value came to 96% and the EC50 came to 11 nM.

Take `COc1c(Cc2ccc(-n3ccnc3)nc2)cc2c(c1F)OCN([C@H]1CCC[C@@H]1O)C2=O` (relative stereo) [Example 48, 8-fluoro-3-(trans-2-hydroxycyclopentyl)-6-((6-(1H-imidazol-1-yl)pyridin-3-yl)methyl)-7-methoxy-2,3-dihydro-4H-1,3-benzoxazin-4-one]: the “activity (%) at 10 μM” value was 106% and the EC50 was determined as 7.4 nM.

Consider `Cc1ccc(Cc2cc3c(c4ccccc24)OCN([C@H]2COCC[C@@H]2O)C3=O)cn1` [Example 133, 1,5-anhydro-2,4-dideoxy-2-(6-((6-methylpyridin-3-yl)methyl)-4-oxo-2H-naphtho[2,1-e][1,3]oxazin-3(4H)-yl)-L-threo-pentitol], for which the “activity (%) at 10 μM” value is given as 91% and the EC50 was determined as 3.6 nM.

With `N#CC1CCN(Cc2cc3c(c4ccccc24)OCN([C@H]2CCC[C@@H]2O)C3=O)CC1` [Example 70, 1-((3-((1S,2S)-2-hydroxycyclopentyl)-4-oxo-3,4-dihydro-2H-naphtho[2,1-e][1,3]oxazin-6-yl)methyl)piperidine-4-carbonitrile], the “activity (%) at 10 μM” value was found to be 104% and the EC50 amounted to 52 nM.
